Measurements as given in US20240383882A1 (Ecstasy LLC, priority 2020, published 2024).

Test system: male C57BL/6 mice
Test: 55° C. warm-water tail-flick test (antinociception)
Type: in vivo
Conditions: half maximal effective dose in mice, using one of: warm water tail-flick test, spared nerve injury, chronic constriction injury, or Complete Freund's adjuvant induced inflammatory pain (not stated which per compound); for ED50: Mus musculus, read-out: Biological Activity (ED50)
Experimental: Antinociception was assessed using the 55° C. warm-water tail-flick test. The latency to the first sign of a rapid tail flick was taken as the behavioral endpoint. Each mouse was first tested for baseline latency by immersing its tail in the water and recording the time to response. Mice not responding within 2 secs were excluded from further testing. Responsive mice were then s.c. administered the test compound and tested for antinociception at 30 min, 60 min, 90 min, and 120 min time points afterward. Antinociception was calculated using the following formula: percentage of antinociception=100×(test latency−control latency)/(20−control latency).
The following new compounds were also made and tested to determine the half maximal possible effective dose, or ED50 (mg/kg), in mice, using one of: the warm water tail-flick test as in Table II, spared nerve injury, chronic constriction injury, or Complete Freund's adjuvant induced inflammatory pain. The symbols in the last column are: + indicates ED 50>50 mg/kg; ++ indicates ED 50 is less than or equal to 30 mg/kg.

CC(C)(c1ccccn1)N1CC[C@@](CCc2ccccc2C#N)(C(O)C(F)(F)F)C1 (single isomer, unassigned) [Compound 135, 2-(2-((R)-1-(2-(pyridin-2-yl)propan-2-yl)-3-((R or S)-2,2,2-trifluoro-1-hydroxyethyl)pyrrolidin-3-yl)ethyl) benzonitrile]
ED50: > 50 mg/kg

CC(C)(c1ccccn1)N1CC[C@@](CCc2ccc(F)c(F)c2)(C(O)C(F)(F)F)C1 (single isomer, unassigned) [Compound 150, (R or S)-1-((R)-3-(3,4-difluorophenethyl)-1-(2-(pyridin-2-yl)propan-2-yl)pyrrolidin-3-yl)-2,2,2-trifluoroethan-1-ol]
ED50: ≤ 30 mg/kg

CC(C)(c1ccccn1)N1CC[C@@](CCc2ccc(F)c(F)c2)(C(O)C(F)(F)F)C1 (single isomer, unassigned) [Compound 151, (R or S)-1-((R)-3-(3,4-difluorophenethyl)-1-(2-(pyridin-2-yl)propan-2-yl)pyrrolidin-3-yl)-2,2,2-trifluoroethan-1-ol]
Biological Activity (ED50): + (+ indicates ED 50>50 mg/kg)

CC(C)(c1ccccn1)N1CC[C@@](CCc2ccc(C#N)s2)(C(O)C(F)(F)F)C1 (single isomer, unassigned) [Compound 152, 5-(2-((R)-1-(2-(pyridin-2-yl)propan-2-yl)-3-((R or S)-2,2,2-trifluoro-1-hydroxyethyl)pyrrolidin-3-yl)ethyl)thiophene-2-carbonitrile]
ED50: ≤ 30 mg/kg

CC(C)(c1ccccn1)N1CC[C@@](CCc2ccc(C#N)s2)(C(O)C(F)(F)F)C1 (single isomer, unassigned) [Compound 153, 5-(2-((R)-1-(2-(pyridin-2-yl)propan-2-yl)-3-((R or S)-2,2,2-trifluoro-1-hydroxyethyl)pyrrolidin-3-yl)ethyl)thiophene-2-carbonitrile]
Biological Activity (ED50): + (+ indicates ED 50>50 mg/kg)

CCOC(C(F)(F)F)[C@]1(CCc2ccc(C#N)s2)CCN(C(C)(C)c2ccccn2)C1 (single isomer, unassigned) [Compound 156, 5-(2-((R)-3-((R or S)-1-ethoxy-2,2,2-trifluoroethyl)-1-(2-(pyridin-2-yl)propan-2-yl)pyrrolidin-3-yl)ethyl)thiophene-2-carbonitrile]
ED50: ≤ 30 mg/kg

CCOC(C(F)(F)F)[C@]1(CCc2ccc(C#N)cc2)CCN(C(C)(C)c2ccc(C)nc2)C1 (single isomer, unassigned) [Compound 170, 4-(2-((R)-3-((R or S)-1-ethoxy-2,2,2-trifluoroethyl)-1-(2-(6-methylpyridin-3-yl)propan-2-yl)pyrrolidin-3-yl)ethyl) benzonitrile]
ED50: > 50 mg/kg

CC(C)(c1ccccn1)N1CC[C@@](CCc2ccc3ccoc3c2)(C(O)C(F)(F)F)C1 (single isomer, unassigned) [Compound 172, (R or S)-1-((R)-3-(2-(benzofuran-6-yl)ethyl)-1-(2-(pyridin-2-yl)propan-2-yl)pyrrolidin-3-yl)-2,2,2-trifluoroethan-1-ol]
ED50: > 50 mg/kg

CC(C)(c1ccccn1)N1CC[C@@](CCc2ccc3nonc3c2)(C(O)C(F)(F)F)C1 (single isomer, unassigned) [Compound 176, (R or S)-1-((R)-3-(2-(benzo[c][1,2,5]oxadiazol-5-yl)ethyl)-1-(2-(pyridin-2-yl)propan-2-yl)pyrrolidin-3-yl)-2,2,2-trifluoroethan-1-ol]
ED50: > 50 mg/kg

CC1(C)COC1[C@]1(CCc2ccc(C#N)cc2)CCN(Cc2ccccn2)C1 (single isomer, unassigned) [Compound 192, 4-(2-((R)-3-((R or S)-3,3-dimethyloxetan-2-yl)-1-(pyridin-2-ylmethyl)pyrrolidin-3-yl)ethyl) benzonitrile]
ED50: ≤ 30 mg/kg

CC1(C)COC1[C@]1(CCc2ccc(C#N)cc2)CCN(Cc2cccnc2)C1 (single isomer, unassigned) [Compound 193, 4-(2-((R)-3-((R or S)-3,3-dimethyloxetan-2-yl)-1-(pyridin-3-ylmethyl)pyrrolidin-3-yl)ethyl) benzonitrile]
ED50: ≤ 30 mg/kg

Cc1ccc(CN2CC[C@@](CCc3ccc(C#N)cc3)(C3OCC3(C)C)C2)cn1 (single isomer, unassigned) [Compound 194, 4-(2-((R)-3-((R or S)-3,3-dimethyloxetan-2-yl)-1-((6-methylpyridin-3-yl)methyl)pyrrolidin-3-yl)ethyl) benzonitrile]
ED50: ≤ 30 mg/kg

CC1(C)COC1[C@]1(CCc2ccc(C#N)cc2)CCN(Cc2ccc(Cl)cc2)C1 (single isomer, unassigned) [Compound 195, 4-(2-((R)-1-(4-chlorobenzyl)-3-((R or S)-3,3-dimethyloxetan-2-yl)pyrrolidin-3-yl)ethyl) benzonitrile]
ED50: ≤ 30 mg/kg

N#Cc1ccc(CC[C@@]2(C3OCC3(F)F)CCN(Cc3ccccn3)C2)cc1 (single isomer, unassigned) [Compound 196, 4-(2-((R)-3-((R or S)-3,3-difluorooxetan-2-yl)-1-(pyridin-2-ylmethyl)pyrrolidin-3-yl)ethyl) benzonitrile]
ED50: ≤ 30 mg/kg

N#Cc1ccc(CC[C@@]2(C3OCC3(F)F)CCN(Cc3cccnc3)C2)cc1 (single isomer, unassigned) [Compound 197, 4-(2-((R)-3-((R or S)-3,3-difluorooxetan-2-yl)-1-(pyridin-3-ylmethyl)pyrrolidin-3-yl)ethyl) benzonitrile]
ED50: ≤ 30 mg/kg

Cc1ccc(CN2CC[C@@](CCc3ccc(C#N)cc3)(C3OCC3(F)F)C2)cn1 (single isomer, unassigned) [Compound 198, 4-(2-((R)-3-((R or S)-3,3-difluorooxetan-2-yl)-1-((6-methylpyridin-3-yl)methyl)pyrrolidin-3-yl)ethyl) benzonitrile]
ED50: ≤ 30 mg/kg

N#Cc1ccc(CC[C@@]2(C3OCC3(F)F)CCN(Cc3ccc(Cl)cc3)C2)cc1 (single isomer, unassigned) [Compound 199, 4-(2-((R)-1-(4-chlorobenzyl)-3-((R or S)-3,3-difluorooxetan-2-yl)pyrrolidin-3-yl)ethyl) benzonitrile]
ED50: ≤ 30 mg/kg

CC1(C)COC1[C@]1(CCc2ccc(C#N)cc2)CCN(Cc2ccc(C#N)cc2)C1 (single isomer, unassigned) [Compound 204, 4-(2-((R)-1-(4-cyanobenzyl)-3-((R or S)-3,3-dimethyloxetan-2-yl)pyrrolidin-3-yl)ethyl) benzonitrile]
ED50: ≤ 30 mg/kg

COc1ccc(CN2CC[C@@](CCc3ccc(C#N)cc3)(C3OCC3(C)C)C2)cc1 (single isomer, unassigned) [Compound 205, 4-(2-((R)-3-((R or S)-3,3-dimethyloxetan-2-yl)-1-(4-methoxybenzyl)pyrrolidin-3-yl)ethyl) benzonitrile]
ED50: ≤ 30 mg/kg

CC1(C)COC1[C@]1(CCc2ccc(C#N)cc2)CCN(Cc2ncc(Cl)cn2)C1 (single isomer, unassigned) [Compound 210, 4-(2-((R)-1-((5-chloropyrimidin-2-yl)methyl)-3-((R or S)-3,3-dimethyloxetan-2-yl)pyrrolidin-3-yl)ethyl)benzonitrile]
ED50: > 50 mg/kg

CC1(C)COC1[C@]1(CCc2ccc(C#N)cc2)CCN(Cc2ncc(Cl)s2)C1 (single isomer, unassigned) [Compound 211, 4-(2-((R)-1-((5-chlorothiazol-2-yl)methyl)-3-((R or S)-3,3-dimethyloxetan-2-yl)pyrrolidin-3-yl)ethyl)benzonitrile]
ED50: ≤ 30 mg/kg

CC(C)(c1ccccc1)N1CC[C@](CCc2ccc(S(C)(=O)=O)cc2)(C(O)C(F)(F)F)C1 (single isomer, unassigned) [Compound 213, (R or S)-2,2,2-trifluoro-1-((S)-3-(4-(methylsulfonyl)phenethyl)-1-(2-phenylpropan-2-yl)pyrrolidin-3-yl)ethan-1-ol]
ED50: ≤ 30 mg/kg

CC(O)[C@]1(CCc2ccc(C#N)cc2)CCN(C(C)(C)c2ccc(C(F)(F)F)nc2)C1 (single isomer, unassigned) [Compound 214, 4-(2-((R)-3-((R or S)-1-hydroxyethyl)-1-(2-(6-(trifluoromethyl)pyridin-3-yl)propan-2-yl)pyrrolidin-3-yl)ethyl) benzonitrile]
ED50: ≤ 30 mg/kg

CC(O)[C@]1(CCc2ccc(F)cc2)CCN(C(C)(C)c2ccccn2)C1 (single isomer, unassigned) [Compound 216, (R or S)-1-((R)-3-(4-fluorophenethyl)-1-(2-(pyridin-2-yl)propan-2-yl)pyrrolidin-3-yl)ethan-1-ol]
ED50: > 50 mg/kg

CC(C)(c1ccccn1)N1CC[C@](/C=C/c2ccc(S(C)(=O)=O)cc2)(C2CCCO2)C1 (single isomer, unassigned) [Compound 218, 2-(2-((R)-3-((E)-4-(methylsulfonyl)styryl)-3-((R or S)-tetrahydrofuran-2-yl)pyrrolidin-1-yl)propan-2-yl)pyridine]
ED50: > 50 mg/kg

CC(O)[C@]1(CCc2ccc(S(C)(=O)=O)cc2)CCN(C(C)(C)c2ccc(Cl)cc2)C1 (single isomer, unassigned) [Compound 219, (R or S)-1-((R)-1-(2-(4-chlorophenyl)propan-2-yl)-3-(4-(methylsulfonyl)phenethyl)pyrrolidin-3-yl)ethan-1-ol]
ED50: > 50 mg/kg

CC(C)(c1ccc(Cl)cc1)N1CC[C@@](CCc2ccc(S(C)(=O)=O)cc2)(C(O)C(F)(F)F)C1 (single isomer, unassigned) [Compound 222, (R or S)-1-((R)-1-(2-(4-chlorophenyl)propan-2-yl)-3-(4-(methylsulfonyl)phenethyl)pyrrolidin-3-yl)-2,2,2-trifluoroethan-1-ol]
ED50: > 50 mg/kg
